Assay results: article PMC10489817, “2-Alkyl-Substituted-4-Amino-Thieno[2,3-d]Pyrimidines: Anti-Proliferative Properties to In Vitro Breast Cancer Models” (Molecules, 2023)
Read-outs that look alike come from different tables or passages of the source.

Tests used:
BALB 3T3 cells = test: in vitro 3T3 NRU test, phototoxicity; format: cell-based, mouse; conditions: for IC50: Mus musculus, light or radiation study; for PIF (photo-irritancy factor): PIF = CC50/PC50, <2 not phototoxic
Protocol: Compounds 2–5 were studied for cytotoxicity/phototoxicity by an in vitro 3T3 NRU-test. The cell line BALB 3T3, clone A31 (mouse embryo fibroblasts), was incubated with the test compounds at a concentration from 15 to 4000 µg/mL for 24 h at 37 °C, 5% CO2, and 95% humidity. The cytotoxicity and phototoxicity were expressed in percentages relative to the negative control determined. […] Based on the dose–response curves, the CC50/PC50 values (50% cytotoxic/phototoxic concentration) were calculated by nonlinear regression analysis (Table 1). The CC50 values can be used to calculate the PIF (photo-irritancy factor) for each test compound according to the following formula: PIF = CC50/PC50.
BALB/3T3 cells were cultured in 75 cm^2 tissue culture flasks in DMEM, 10% FBS, 2 mM glutamine, and antibiotics (penicillin 100 U/mL and streptomycin-100 µg/mL) at 37 °C, 5% CO2, and 90% relative humidity. Cytotoxicity/phototoxicity was assessed by a validated BALB/3T3 clone A31 neutral red uptake assay (3T3 NRU test). Briefly, cells were plated in a 96-well microtiter plate at a density of 1 × 10^4 cells/100 µL/well and incubated for 24 h. A wide concentration range was applied for the test compounds. For the phototoxicity tests, 96-well plates were irradiated with a dose of 2.4 J/cm^2, and the cells were incubated for an additional 24 h. After treatment with neutral red medium, washing, and treatment with the ethanol/acetic acid solution, the absorption was measured on a TECAN microplate reader (TECAN, Grödig, Austria) at a wavelength of 540 nm. The light source which we used was a light-emitting diode (LED) matrix—an artificial solar light simulator Helios-iO, model LE-9ND55-H—5500K (SERIC Ltd., Tokyo, Japan).
Cytotoxicity/phototoxicity were expressed as CC50/PC50 values (concentrations required for 50% cytotoxicity/phototoxicity), calculated using non-linear regression analysis (GraphPad Software GraphPad Prism 9.5.1, San Diego, CA, USA). The CC50 values were used to calculate the PIF (photo-irritancy factor) for each test substance, according to the following formula:
PIF = Cytotoxicity (CC50)/Phototoxicity (PC50)

MCF-10A [1] = test: MTT anti-proliferative test, MCF-10A; format: cell-based; conditions: Homo sapiens
Description: (§1) The MCF-10A cell line (normal human mammary epithelial cells) served as a reference control.
(§2) All breast cell lines (MCF-10A, MCF-7, and MDA-MB-231) were purchased from the American Type Culture Collection—ATCC (Manassas, VA, USA). The MCF-7 and MDA-MB-231 were cultivated in Dulbecco’s modified Eagle’s medium (DMEM) and supplemented with 10% fetal bovine serum (FBS), 1% sodium pyruvate, and 1% MEM non-essential amino acids (NEAA) without antibiotics. The non-tumorigenic breast cell line (MCF-10A) was cultivated in DMEM medium (Sigma-Aldrich, St. Louis, MO, USA) and supplemented with 10% FBS, 1% sodium pyruvate, 1% non-essential amino acids (NEAA), 20 ng/mL human epithelia growth factor (hEGF), 10 μg/mL insulin, and 0.5 μg/mL hydrocortisone without antibiotics. All cell lines were maintained in a humidified atmosphere, with 5% CO2 at 37 °C.
(§3) Using the standard MTT-dye reduction assay described by Mosmann, the anti-proliferative activity was tested. The method is based on the metabolism of the tetrazolium salt MTT to insoluble formazan. The formazan absorption was registered using a microplate reader at λ = 540 nm. The measured absorption is an indicator of cell viability and metabolic activity. Anti-proliferative activities were expressed as IC50 values (concentrations required for 50% inhibition of cell growth), calculated using non-linear regression analysis (GraphPad Software, San Diego, CA, USA).

MCF-7 [2] = test: MTT anti-proliferative test, MCF-7; format: cell-based, human; conditions: for SI (selective index) MCF-7: IC50 MCF-10A/IC50 MCF-7
Description: as §1, §2, §3

MDA-MB-231 [3] = test: MTT anti-proliferative test, MDA-MB-231; format: cell-based, human; conditions: for SI (selective index) MDA-MB-231: IC50 MCF-10A/IC50 MDA-MB-231
Description: as §1, §2, §3

MCF-10A [4] = test: Cell cycle analysis by propidium iodide staining, MCF-10A; format: cell-based, human; conditions: for change of %G1 vs control, MCF-10A / change of %G2 vs control, MCF-10A / change of %S vs control, MCF-10A: control = 100%, 24 h; for %G1, MCF-10A / %G2, MCF-10A / %S, MCF-10A: treated at IC50, 24 h
Protocol: (§4) Our study continued with the examination of the effect of the newly synthesized compounds’ IC50 values on cell cycle progression. The cell aliquots were collected, and FACS analyses were used to detect the effects of cell treatments with the selected compounds (2, 4, and 5). A propidium iodide staining assay was performed.
(§5) The changes in the cell cycle distribution in % (G1, S, and G2 phases), based on the graphical figures A–C, were calculated and are given in Table 4.
(§6) The cells were trypsinized, suspended in medium + 10% FCS, and centrifuged (1000 rpm, 5 min); then, the pellet was suspended in PBS (1 mL) and fixed with EtOH. The cells were suspended in 2.5 mL pre-cold 70% EtOH and incubated on ice for 15 min. The staining procedure was as follows: the pellet was suspended in a 500 μL PI-solution in PBS and 0.1 mg/mL RNase A, and 0.05% Triton X-100 was added. After incubation for 10 min at 37 °C, the cells were transferred to the flow cytometer and cell fluorescence was measured. The samples were measured by flow cytometry (LSR II, BD Biosciences, Franklin Lakes, NJ, USA) and analyzed using BD FACS DIVA software v. 6.1.3 (BD Biosciences).

MCF-7 [5] = test: Cell cycle analysis by propidium iodide staining, MCF-7; format: cell-based, human; conditions: for cell cycle arrest phase, MCF-7: ER positive cell line; for change of %G1 vs control, MCF-7 / change of %G2 vs control, MCF-7 / change of %S vs control, MCF-7: control = 100%, 24 h; for %G1, MCF-7 / %G2, MCF-7 / %S, MCF-7: treated at IC50, 24 h
Protocol: as §4, §5, §6

MDA-MB-231 [6] = test: Cell cycle analysis by propidium iodide staining, MDA-MB-231; format: cell-based, human; conditions: for cell cycle arrest phase, MDA-MB-231: ER negative cell line; for change of %G1 vs control, MDA-MB-231 / change of %G2 vs control, MDA-MB-231 / change of %S vs control, MDA-MB-231: control = 100%, 24 h; for %G1, MDA-MB-231 / %G2, MDA-MB-231 / %S, MDA-MB-231: treated at IC50, 24 h
Protocol: as §4, §5, §6

[7] = BALB 3T3, irradiated 2.4 J/cm^2 (PC50), read-out: IC50 of Mean ± SD, Phototoxicity
[8] = BALB 3T3, irradiated, value in brackets, read-out: IC50, Phototoxicity (converted)
[9] = read-out: IC50 MCF-10A (converted)
[10] = read-out: IC50 of Mean ± SD, Anti-Proliferative Activity MCF-10A
[11] = Homo sapiens, MCF7, MTT, read-out: IC50 MCF-7 (converted)
[12] = Homo sapiens, MCF7, MTT, read-out: IC50 of Mean ± SD, Anti-Proliferative Activity MCF-7
[13] = MTT, read-out: IC50 MCF-7 (converted)
[14] = Homo sapiens, MDA-MB-231, MTT, read-out: IC50 MDA-MB-231 (converted)
[15] = Homo sapiens, MDA-MB-231, MTT, read-out: IC50 of Mean ± SD, Anti-Proliferative Activity MDA-MB-231
[16] = MTT, read-out: IC50 MDA-MB-231 (converted)
[17] = Homo sapiens, MDA-MB-231, MTT, read-out: IC50 MDA-MB-231 (text)

| IC50 (MCF-7 [2]; [11]) [µM] | IC50 (MCF-7 [2]; [12]) [µg/mL] | IC50 (MCF-7 [2]; [13]) [µM] | IC50 (MDA-MB-231 [3]; [14]) [µM] | IC50 (MDA-MB-231 [3]; [15]) [µg/mL] | IC50 (MDA-MB-231 [3]; [16]) [µM] | SMILES | IC50 (BALB 3T3 cells; [7]) [µg/mL] | IC50 (BALB 3T3 cells; [8]) [µM] | IC50 (MCF-10A [1]; [9]) [µM] | IC50 (MCF-10A [1]; [10]) [µg/mL] | SI (selective index) MCF-7 (MCF-7 [2]) | SI (selective index) MDA-MB-231 (MDA-MB-231 [3]) | change of %G1 vs control, MCF-10A (MCF-10A [4]) | change of %G2 vs control, MCF-10A (MCF-10A [4]) | change of %S vs control, MCF-10A (MCF-10A [4]) [%] | %G1, MCF-10A (MCF-10A [4]) [%] | %G2, MCF-10A (MCF-10A [4]) [%] | %S, MCF-10A (MCF-10A [4]) [%] | cell cycle arrest phase, MCF-7 (MCF-7 [5]) | change of %G1 vs control, MCF-7 (MCF-7 [5]) | further results |
| --- | --- | --- | --- | --- | --- | --- | --- | --- | --- | --- | --- | --- | --- | --- | --- | --- | --- | --- | --- | --- | --- |
| 100 | 35.5 ± 1.5 | 140 | 1500 | 365 ± 26.6 | 1450 | CCOC(=O)c1sc2nc(C)nc(N)c2c1C [Compound 5, Ethyl 4-Amino-2,5-Dimethyl-Thieno[2,3-d]Pyrimidine-6-Carboxylate] | 2350 ± 114 | 9400 | 2500 | 618 ± 29.7 | 17.4 | 1.7 | +5.52% | +24.657% | −13.9 | 86 | 8.72 | 7.92 | arrest was detected in the G1 phase | +20.54% | PIF (photo-irritancy factor) (BALB 3T3 cells): 1.2; change of %G2 vs control, MCF-7 (MCF-7 [5]): −15.7%; change of %S vs control, MCF-7 (MCF-7 [5]): −10.2%; %G1, MCF-7 (MCF-7 [5]): 48.7%; %G2, MCF-7 (MCF-7 [5]): 8.40%; %S, MCF-7 (MCF-7 [5]): 38.7%; cell cycle arrest phase, MDA-MB-231 (MDA-MB-231 [6]): cell cycle arrest in the G2 stage; change of %G1 vs control, MDA-MB-231 (MDA-MB-231 [6]): −20%; change of %G2 vs control, MDA-MB-231 (MDA-MB-231 [6]): +45.9%; change of %S vs control, MDA-MB-231 (MDA-MB-231 [6]): +15.45%; %G1, MDA-MB-231 (MDA-MB-231 [6]): 33.1%; %G2, MDA-MB-231 (MDA-MB-231 [6]): 6.439%; %S, MDA-MB-231 (MDA-MB-231 [6]): 53.8%; melting point: 203 to 204 °C |
| 100 | 28.9 ± 2.1 | 110 | 200 | 62.9 ± 5.7 | 240 | CCOC(=O)c1sc2nc(CC)nc(N)c2c1C [Compound 4, Ethyl 4-Amino-2-Ethyl-5-Methylthieno[2,3-d]Pyrimidine-6-Carboxylate] | 2110 ± 122 | 8000 | 1400 | 367 ± 17.8 | 12.7 | 5.8 | +4.9% | +15.4% | −29.0 | 85.5 | 8.108 | 6.53 | arrest was detected in the G1 phase | +20% | PIF (photo-irritancy factor) (BALB 3T3 cells): 1.2; IC50 (MDA-MB-231 [3]; [17]): 62.9 µg/mL; change of %G2 vs control, MCF-7 (MCF-7 [5]): −22.55%; change of %S vs control, MCF-7 (MCF-7 [5]): −8.35%; %G1, MCF-7 (MCF-7 [5]): 48.5%; %G2, MCF-7 (MCF-7 [5]): 7.769%; %S, MCF-7 (MCF-7 [5]): 39.5%; cell cycle arrest phase, MDA-MB-231 (MDA-MB-231 [6]): cell cycle arrest in the G2 stage; change of %G1 vs control, MDA-MB-231 (MDA-MB-231 [6]): −29.46%; change of %G2 vs control, MDA-MB-231 (MDA-MB-231 [6]): +44.9%; change of %S vs control, MDA-MB-231 (MDA-MB-231 [6]): +14.4%; %G1, MDA-MB-231 (MDA-MB-231 [6]): 29.2%; %G2, MDA-MB-231 (MDA-MB-231 [6]): 6.35%; %S, MDA-MB-231 (MDA-MB-231 [6]): 53.3%; melting point: 173 to 175 °C |
| 300 | 83.1 ± 7.3 | 260 | 170 | 52.6 ± 3.2 | 160 | CCOC(=O)Cc1nc(N)c2c(C)c(C(=O)OCC)sc2n1 [Compound 2, Ethyl 4-Amino-2-(2-Ethoxy-2-Oxoethyl)-5-Methylthieno[2,3-d]Pyrimidine-6-Carboxylate] | 1080 ± 117 | 3300 | 1700 | 503 ± 16.7 | 6.1 | 9.6 | +5.439% | −6.42% | −20.8 | 85.9 | 6.55 | 7.328 | arrest was detected in the G1 phase | +11.1% | IC50 (MDA-MB-231 [3]; [17]): 52.6 µg/mL; change of %G2 vs control, MCF-7 (MCF-7 [5]): +7.75%; change of %S vs control, MCF-7 (MCF-7 [5]): −7.65%; %G1, MCF-7 (MCF-7 [5]): 44.9%; %G2, MCF-7 (MCF-7 [5]): 10.7%; %S, MCF-7 (MCF-7 [5]): 39.8%; cell cycle arrest phase, MDA-MB-231 (MDA-MB-231 [6]): cell cycle arrest in the G2 stage; change of %G1 vs control, MDA-MB-231 (MDA-MB-231 [6]): −17.63%; change of %G2 vs control, MDA-MB-231 (MDA-MB-231 [6]): +53.65%; change of %S vs control, MDA-MB-231 (MDA-MB-231 [6]): +15%; %G1, MDA-MB-231 (MDA-MB-231 [6]): 34.1%; %G2, MDA-MB-231 (MDA-MB-231 [6]): 6.73%; %S, MDA-MB-231 (MDA-MB-231 [6]): 53.6%; melting point: 206 to 207 °C |
